# The source made the active and inactive calls. The calls are words filed in the database; no cut-off is given here.
# How the values were obtained:
# [1] = target: T1, Glutamate NMDA receptor; Grin1/Grin2c (Rattus norvegicus) (UniProt P35439+Q00961); assay: Agonist activity at recombinant rat GluN1/GluN2C NMDA receptor expressed in xenopus laevis oocytes by measuring maximum response by two-electrode voltage-clamp method relative to glycine; assay type: cell-based; settings: filed as agonist
# [2] = target: T2, Glutamate NMDA receptor; Grin1/Grin2a (Rattus norvegicus) (UniProt P35439+Q00959); assay: Partial agonist activity at recombinant rat GluN1/GluN2A NMDA receptor expressed in xenopus laevis oocytes by measuring maximum response by two-electrode voltage-clamp method relative to glycine; assay type: cell-based; settings: filed as partial agonist
# [3] = target: T3, Glutamate NMDA receptor; Grin1/Grin2a (Rattus norvegicus, UniProt P35439+Q00959); assay: Partial agonist activity at recombinant rat GluN1/GluN2A NMDA receptor expressed in xenopus laevis oocytes in presence of L-glutamate by two-electrode voltage-clamp method; assay type: cell-based
# [4] = target: T4, Ionotropic glutamate receptor NMDA 1/2D (Rattus norvegicus) (UniProt P35439+Q62645); assay: Partial agonist activity at recombinant rat GluN1/GluN2D NMDA receptor expressed in xenopus laevis oocytes by measuring maximum response by two-electrode voltage-clamp method relative to glycine; assay type: cell-based
# [5] = target: T5, Ionotropic glutamate receptor NMDA 1/2D (Rattus norvegicus, UniProt P35439+Q62645); assay: Partial agonist activity at recombinant rat GluN1/GluN2D NMDA receptor expressed in xenopus laevis oocytes in presence of L-glutamate by two-electrode voltage-clamp method; assay type: cell-based
# [6] = target: T6, Glutamate NMDA receptor; Grin1/Grin2c (Rattus norvegicus, UniProt P35439+Q00961); assay: Agonist activity at recombinant rat GluN1/GluN2C NMDA receptor expressed in xenopus laevis oocytes in presence of L-glutamate by two-electrode voltage-clamp method; assay type: cell-based
# [7] = target: T7, Glutamate NMDA receptor; Grin1/Grin2b (Rattus norvegicus) (UniProt P35439+Q00960); assay: Agonist activity at recombinant rat GluN1/GluN2B NMDA receptor expressed in xenopus laevis oocytes at 1 uM by two-electrode voltage-clamp method relative to control; assay type: cell-based
# [8] = target: T7, Glutamate NMDA receptor; Grin1/Grin2b (Rattus norvegicus); assay: Agonist activity at recombinant rat GluN1/GluN2B NMDA receptor expressed in xenopus laevis oocytes by measuring maximum response by two-electrode voltage-clamp method relative to glycine; assay type: cell-based; settings: filed as agonist
# [9] = target: T7, Glutamate NMDA receptor; Grin1/Grin2b (Rattus norvegicus); assay: Agonist activity at recombinant rat GluN1/GluN2B NMDA receptor expressed in xenopus laevis oocytes at 3 uM by two-electrode voltage-clamp method relative to control; assay type: cell-based
# [10] = Efflux ratio of apparent permeability across basolateral to apical over apical to basolateral side in dog MDR1-deficient MDCK cells expressing human MDR1 at 3 uM by LC-MS/MS analysis; assay type: ADME, cell-based, Canis lupus familiaris
# [11] = Apparent permeability across basolateral to apical side in dog MDR1-deficient MDCK cells expressing human MDR1 at 3 uM by LC-MS/MS analysis; assay type: ADME, cell-based, Canis lupus familiaris
# [12] = Apparent permeability across apical to basolateral side in dog MDR1-deficient MDCK cells expressing human MDR1 at 3 uM by LC-MS/MS analysis; assay type: ADME, cell-based, Canis lupus familiaris
# [13] = target: T7, Glutamate NMDA receptor; Grin1/Grin2b (Rattus norvegicus); assay: Agonist activity at recombinant rat GluN1/GluN2B NMDA receptor expressed in xenopus laevis oocytes at 10 uM by two-electrode voltage-clamp method relative to control; assay type: cell-based
# Rattus norvegicus [14] = species on record: Rattus norvegicus; assay: Selectivity ratio of EC50 for partial agonist activity at recombinant rat GluN1/GluN2D NMDA receptor expressed in xenopus laevis oocytes to EC50 for agonist activity at recombinant rat GluN1/GluN2C NMDA receptor expressed in xenopus laevis oocytes; assay type: cell-based
# Rattus norvegicus [15] = species on record: Rattus norvegicus; assay: Agonist activity at recombinant rat GluN1 F754L mutant receptor expressed in xenopus laevis oocytes in presence of L-glutamate by two-electrode voltage-clamp method; assay type: cell-based
# [16] = Metabolic stability in human liver microsomes assessed as half life at 1 uM incubated for 5 mins in presence of NADPH by LC-MS/MS analysis; assay type: ADME, Microsome
# Rattus norvegicus [17] = species on record: Rattus norvegicus; assay: Selectivity ratio of EC50 for partial agonist activity at recombinant rat GluN1/GluN2A NMDA receptor expressed in xenopus laevis oocytes to EC50 for agonist activity at recombinant rat GluN1/GluN2C NMDA receptor expressed in xenopus laevis oocytes; assay type: cell-based
# Rattus norvegicus [18] = species on record: Rattus norvegicus; assay: Agonist activity at recombinant rat GluN1 Y692L mutant receptor expressed in xenopus laevis oocytes in presence of L-glutamate by two-electrode voltage-clamp method; assay type: cell-based
# [19] = Selectivity ratio of EC50 for wild type GluN1/GluN2C receptor to EC50 for GluN1 V689I/2C receptor expressed in xenopus laevis oocytes; assay type: cell-based
# [20] = Selectivity ratio of EC50 for wild type GluN1/2C receptor to EC50 for GluN1 S688A/2C mutant receptor expressed in xenopus laevis oocytes; assay type: cell-based
# Rattus norvegicus [21] = species on record: Rattus norvegicus; assay: Agonist activity at recombinant rat GluN1 V689I mutant receptor expressed in xenopus laevis oocytes assessed as fold reduction by two-electrode voltage-clamp method; assay type: cell-based; settings: filed as agonist
# [22] = target: T7, Glutamate NMDA receptor; Grin1/Grin2b (Rattus norvegicus); assay: Agonist activity at recombinant rat GluN1/GluN2B NMDA receptor expressed in xenopus laevis oocytes at 30 uM by two-electrode voltage-clamp method relative to control; assay type: cell-based
# [23] = target: Ionotropic glutamate receptor NMDA 1/2C (Homo sapiens) (UniProt Q05586+Q14957); assay: Agonist activity at GluN1/GluN2C (unknown origin) expressed in xenopus laevis oocytes by measuring maximum response by two-electrode voltage-clamp method relative to glycine; assay type: cell-based
# [24] = target: T3, Glutamate NMDA receptor; Grin1/Grin2a; assay: Inhibition of recombinant rat GluN1/GluN2A NMDA receptor expressed in xenopus laevis oocytes in presence of glycine and L-glutamate by two-electrode voltage-clamp method; assay type: cell-based
# [25] = target: Glutamate NMDA receptor; Grin1/Grin2b (Rattus norvegicus, UniProt P35439+Q00960); assay: Inhibition of recombinant rat GluN1/GluN2B NMDA receptor expressed in xenopus laevis oocytes in presence of glycine and L-glutamate by two-electrode voltage-clamp method; assay type: cell-based
# [26] = target: T4, Ionotropic glutamate receptor NMDA 1/2D (Rattus norvegicus); assay: Inhibition of recombinant rat GluN1/GluN2D NMDA receptor expressed in xenopus laevis oocytes at 30 uM in presence of glycine and L-glutamate by measuring maximum response by two-electrode voltage-clamp method relative to control; assay type: cell-based
# [27] = target: T2, Glutamate NMDA receptor; Grin1/Grin2a (Rattus norvegicus); assay: Inhibition of recombinant rat GluN1/GluN2A NMDA receptor expressed in xenopus laevis oocytes in presence of glycine and L-glutamate by measuring maximum response by two-electrode voltage-clamp method relative to control; assay type: cell-based
# [28] = target: T6, Glutamate NMDA receptor; Grin1/Grin2c; assay: Inhibition of recombinant rat GluN1/GluN2C NMDA receptor expressed in xenopus laevis oocytes in presence of glycine and L-glutamate by two-electrode voltage-clamp method; assay type: cell-based
# [29] = target: T1, Glutamate NMDA receptor; Grin1/Grin2c (Rattus norvegicus); assay: Inhibition of recombinant rat GluN1/GluN2C NMDA receptor expressed in xenopus laevis oocytes in presence of glycine and L-glutamate by measuring maximum response by two-electrode voltage-clamp method relative to control; assay type: cell-based
# [30] = target: T7, Glutamate NMDA receptor; Grin1/Grin2b (Rattus norvegicus); assay: Inhibition of recombinant rat GluN1/GluN2B NMDA receptor expressed in xenopus laevis oocytes in presence of glycine and L-glutamate by measuring maximum response by two-electrode voltage-clamp method relative to control; assay type: cell-based
# [31] = target: T5, Ionotropic glutamate receptor NMDA 1/2D; assay: Inhibition of recombinant rat GluN1/GluN2D NMDA receptor expressed in xenopus laevis oocytes in presence of glycine and L-glutamate by two-electrode voltage-clamp method; assay type: cell-based
SMILES,Rmax [1] [%],Rmax [2] [%],EC50 [3] [nM],Rmax [4] [%],EC50 [5] [nM],EC50 [6] [nM],Rmax ([4]; filed as partial agonist) [%],Papp [11] [nm/s],Papp [12] [nm/s],Activity [22] [%],further results
Cc1cc(C(=O)NC[C@@H](N)C(=O)O)sc1-c1ccccc1Br,267,75,51,30,120,25,,,,,Activity [7]: < 5%
NCC(=O)O,100,100,,,,,100,,,,Rmax [8]: 100%
COC(=O)c1ccccc1-c1c2ccc(=N)cc-2oc2cc(N)ccc12.Cl [RHODAMINE123],,,,,,,,57,7.7,,Ratio [10]: 7.5
N[C@H](CNC(=O)c1cc(Br)c(-c2ccccc2F)s1)C(=O)O,864,54,210,,240,34,44,22,16,,Ratio [10]: 1.4; Ratio EC50 (Rattus norvegicus [14]): 7.1; Activity (Rattus norvegicus [15]; filed as agonist): Active; Compound Shows Reduced Efficacy Compared To Wild-Type Glun1/2C; t1/2 [16]: > 120 min; Ratio EC50 (Rattus norvegicus [17]): 6.2; Activity (Rattus norvegicus [18]; filed as agonist): Active; Compound Shows Reduced Efficacy Compared To Wild-Type Glun1/2C; Ratio EC50 [19]: 2.6; Ratio EC50 [20]: 1.9; fold change (FC) (Rattus norvegicus [21]): 2; Activity [13]: < 5%
N[C@H](CNC(=O)c1cc2c(Cl)ccc(Cl)c2[nH]1)C(=O)O,,,,,,,,,,,Rmax [23]: 38%
CCc1ccccc1-c1cccc2[nH]c(C(=O)NC[C@@H](N)C(=O)O)cc12,,,,,,,,74,8.1,,Ratio [10]: 9.2; t1/2 [16]: > 120 min
N[C@H](CO)C(=O)O,116,102,,,,,93,,,,
N[C@H](CNC(=O)c1cc(Br)c(-c2ccccc2Br)s1)C(=O)O,430,58,18,30,16,3,,74,9,,Ratio [10]: 8.2; Ratio EC50 (Rattus norvegicus [14]): 5.5; t1/2 [16]: > 120 min; Ratio EC50 (Rattus norvegicus [17]): 6.2; Activity [7]: < 5%
CCc1ccccc1-c1ccc(C(=O)NC[C@@H](N)C(=O)O)o1,,,,,,,,,,,IC50 [24]: 540 nM; IC50 [31]: 1300 nM; IC50 [25]: 150 nM; Rmax [26]: 7%; Rmax [27]: 77%; IC50 [28]: 1100 nM; Rmax [29]: 65%; Rmax [30]: 2%
N[C@H](CNC(=O)c1ccc(-c2ccccc2C(F)(F)F)s1)C(=O)O,158,62,150,24,200,88,,,,< 5,

# More lines, main results first:
Rmax [1] [%],Rmax [2] [%],EC50 [3] [nM],Rmax [4] [%],EC50 [5] [nM],EC50 [6] [nM],Rmax ([4]; filed as partial agonist) [%],Papp [11] [nm/s],Papp [12] [nm/s],Activity [22] [%],SMILES,further results
116,59,102,34,303,133,,,,,N[C@H](CNC(=O)c1ccc(-c2cccc3ccccc23)s1)C(=O)O,Activity [9]: < 5%
179,67,290,29,180,110,,,,,COc1cccc(F)c1-c1ccc(C(=O)NC[C@@H](N)C(=O)O)s1,Activity [13]: < 5%
390,61,3730,,5580,1880,42,,,< 5,N[C@H](CNC(=O)c1ccc(-c2cccc(F)c2)s1)C(=O)O,
326,69,2280,,3270,640,43,,,< 5,N[C@H](CNC(=O)c1ccc(-c2ccccc2)s1)C(=O)O,IC50 [24]: 1900 nM; IC50 [25]: 2100 nM; Rmax [26]: 20%; Rmax [27]: 137%; IC50 [28]: 3900 nM; Rmax [29]: 395%; Rmax [30]: 3%
410,63,880,,980,230,45,,,< 5,N[C@H](CNC(=O)c1ccc(-c2ccccc2F)s1)C(=O)O,
,,,,,,,896,1074,,CC(C)OC(=O)[C@H](N)CNC(=O)c1ccc(-c2ccccc2Br)s1,Ratio [10]: 0.83; t1/2 [16]: 22 min
293,90,1280,24,1290,660,,,,< 5,COc1ccccc1-c1ccc(C(=O)NC[C@@H](N)C(=O)O)s1,
321,62,1990,,3520,930,41,,,< 5,N[C@H](CNC(=O)c1ccc(-c2cccc(F)c2F)s1)C(=O)O,
306,83,1070,23,1450,740,,,,< 5,COc1ccc(F)cc1-c1ccc(C(=O)NC[C@@H](N)C(=O)O)s1,
234,77,57,32,81,41,,14,20,,CCc1ccccc1-c1ccc(C(=O)NC[C@@H](N)C(=O)O)s1,Activity (Rattus norvegicus [15]): inactive; Activity [9]: < 5%; t1/2 [16]: > 120 min; Activity (Rattus norvegicus [18]): inactive; fold change (FC) (Rattus norvegicus [21]): 1.3
156,80,74,28,72,38,,8.8,5.3,< 5,N[C@H](CNC(=O)c1ccc(-c2ccccc2Br)s1)C(=O)O,Ratio [10]: 1.6; Activity (Rattus norvegicus [15]): inactive; t1/2 [16]: > 120 min; Activity (Rattus norvegicus [18]): inactive; Ratio EC50 [19]: 2.9; Ratio EC50 [20]: 1.4; fold change (FC) (Rattus norvegicus [21]): 1.5

# From ChEMBL document CHEMBL6121048 (J Med Chem, 2025)
